In patent publication US12077503B2, “Substituted cyclic amides and their use as herbicides” (FMC CORPORATION, priority 2015, dated 2024):

Columns and labels:
Assay type in all cases: in vivo
Kochia (Kochia scoparia) [1] = assay: Test A preemergence
Procedure, shortened: (§1)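 Compounds were formulated in a non-phytotoxic solvent mixture with surfactant and applied as a preemergence directed soil spray after seeding, or sprayed postemergence over plants 2 to 10 cm tall at the one- to two-leaf stage. Evaluation after about 10 d compared treated with untreated controls, using a scale from 0 (no effect) to 100 (complete control).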

[2] = tested on: barnyardgrass (Echinochloa crus-galli); assay: Test A preemergence
Procedure, shortened: as §1

[3] = tested on: giant foxtail (Setaria faberii); assay: Test A preemergence
Procedure, shortened: as §1

[4] = tested on: pigweed (Amaranthus retroflexus); assay: Test A preemergence
[5] = tested on: ragweed (common ragweed, Ambrosia elatior); assay: Test A preemergence
Procedure, shortened: as §1

[6] = tested on: ryegrass, Italian (Italian ryegrass, Lolium multiflorum); assay: Test A preemergence
Procedure, shortened: as §1

[7] = tested on: Galium (catchweed bedstraw, Galium aparine); assay: Test A postemergence
Procedure, shortened: as §1

Kochia (Kochia scoparia) [8] = assay: Test A postemergence
Procedure, shortened: as §1

[9] = tested on: barnyardgrass (Echinochloa crus-galli); assay: Test A postemergence
Procedure, shortened: as §1

[10] = tested on: blackgrass (Alopecurus myosuroides); assay: Test A postemergence
Procedure, shortened: as §1

corn (Zea mays) = assay: Test A postemergence
Procedure, shortened: as §1

[11] = tested on: giant foxtail (Setaria faberii); assay: Test A postemergence
Procedure, shortened: as §1

[12] = tested on: pigweed (Amaranthus retroflexus); assay: Test A postemergence
Procedure, shortened: as §1

[13] = tested on: ragweed (common ragweed, Ambrosia elatior); assay: Test A postemergence
Procedure, shortened: as §1

[14] = tested on: ryegrass, Italian (Italian ryegrass, Lolium multiflorum); assay: Test A postemergence
Procedure, shortened: as §1

[15] = tested on: wheat (Triticum aestivum); assay: Test A postemergence
Procedure, shortened: as §1

[16] = tested on: barnyardgrass (Echinochloa crus-galli); assay: Test B flooded paddy test; conditions: 250 g ai/ha, Flood, 0 to 100 scale where 0 is no effect and 100 is complete control
Procedure, shortened: (§2)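 Evaluation by eye, against controls, occurred 13–15 d post-treatment in a greenhouse, using a 0 (no effect) to 100 (complete control) scale. Application was into the paddy water, 3 cm deep over the soil, on 2-leaf plants.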

[17] = tested on: ducksalad (Heteranthera limosa); assay: Test B flooded paddy test; conditions: 250 g ai/ha, Flood, 0 to 100 scale where 0 is no effect and 100 is complete control
Procedure, shortened: as §2

rice (Oryra sativa) = assay: Test B flooded paddy test; conditions: 250 g ai/ha, Flood, 0 to 100 scale where 0 is no effect and 100 is complete control
Procedure, shortened: as §2

[18] = tested on: sedge, umbrella (small-flower umbrella sedge, Cyperus difformis); assay: Test B flooded paddy test; conditions: 250 g ai/ha, Flood, 0 to 100 scale where 0 is no effect and 100 is complete control
Procedure, shortened: as §2

[19] = 125 g ai/ha, preemergence, 0 to 100 scale (0 no effect, 100 complete control)
[20] = Preemergence, 500 g ai/ha, visual injury approx. 10 d
[21] = 125 g ai/ha, postemergence, visual injury rating on 0 to 100 scale (0 no effect, 100 complete control), approx. 10 d
[22] = 500 g ai/ha, postemergence, 0 to 100 scale, 0 no effect, 100 complete control

CN1C[C@H](c2ccc(C(F)F)cc2)[C@@H](C(=O)Nc2cccnc2F)C1=O [Compound 1274]
pest or weed control at 31 g/ha (Kochia (Kochia scoparia) [1]; Bassia scoparia, pre-emergence, 240 h, 31 g ai/ha, Preemergence, 0 to 100 scale where 0 is no effect and 100 is complete control, read-out: Kochia plant response rating): 30% | pest or weed control at 125 g/ha (Kochia (Kochia scoparia) [1]; Bassia scoparia, pre-emergence, 240 h, 125 g ai/ha, preemergence, visual injury rating, 0 to 100 scale where 0 is no effect and 100 is complete control, approximately 10 d, read-out: Kochia plant response rating): 70% | pest or weed control at 31 g/ha ([2]; Echinochloa crus-galli, pre-emergence, 240 h, 31 g ai/ha, Preemergence, 0 to 100 scale where 0 is no effect and 100 is complete control, read-out: Barnyardgrass plant response rating): 30% | pest or weed control at 125 g/ha ([2]; Echinochloa crus-galli, pre-emergence, 240 h, 125 g ai/ha, preemergence, visual injury rating, 0 to 100 scale where 0 is no effect and 100 is complete control, approximately 10 d, read-out: Barnyardgrass plant response rating): 90% | pest or weed control at 31 g/ha ([3]; Setaria faberi, pre-emergence, 240 h, 31 g ai/ha, Preemergence, 0 to 100 scale where 0 is no effect and 100 is complete control, read-out: Foxtail, Giant plant response rating): 80% | pest or weed control at 125 g/ha ([3]; Setaria faberi, pre-emergence, 240 h, 125 g ai/ha, preemergence, visual injury rating, 0 to 100 scale where 0 is no effect and 100 is complete control, approximately 10 d, read-out: Foxtail, Giant plant response rating): 90% | pest or weed control at 31 g/ha ([4]; Amaranthus retroflexus, pre-emergence, 240 h, 31 g ai/ha, Preemergence, 0 to 100 scale where 0 is no effect and 100 is complete control, read-out: Pigweed plant response rating): 30% | pest or weed control at 125 g/ha ([4]; Amaranthus retroflexus, pre-emergence, 240 h, 125 g ai/ha, preemergence, visual injury rating, 0 to 100 scale where 0 is no effect and 100 is complete control, approximately 10 d, read-out: Pigweed plant response rating): 70% | pest or weed control at 31 g/ha ([5]; Ambrosia artemisiifolia, pre-emergence, 240 h, 31 g ai/ha, Preemergence, 0 to 100 scale where 0 is no effect and 100 is complete control, read-out: Ragweed plant response rating): 20% | pest or weed control at 125 g/ha ([5]; Ambrosia artemisiifolia, pre-emergence, 240 h, 125 g ai/ha, preemergence, visual injury rating, 0 to 100 scale where 0 is no effect and 100 is complete control, approximately 10 d, read-out: Ragweed plant response rating): 80% | pest or weed control at 31 g/ha ([6]; Lolium multiflorum, pre-emergence, 240 h, 31 g ai/ha, Preemergence, 0 to 100 scale where 0 is no effect and 100 is complete control, read-out: Ryegrass, Italian plant response rating): 0% | pest or weed control at 125 g/ha ([6]; Lolium multiflorum, pre-emergence, 240 h, 125 g ai/ha, preemergence, visual injury rating, 0 to 100 scale where 0 is no effect and 100 is complete control, approximately 10 d, read-out: Ryegrass, Italian plant response rating): 20% | pest or weed control at 125 g/ha ([7]; Galium, post-emergence, 240 h, 125 g ai/ha, Postemergence, visual rating about 10 d after treatment, read-out: Galium plant response rating (0 to 100 scale)): 60% | pest or weed control at 31 g/ha ([7]; Galium, post-emergence, 240 h, Postemergence, 31 g ai/ha, 0 is no effect, 100 is complete control, read-out: Galium plant response rating (0 to 100 scale)): 50% | pest or weed control at 125 g/ha (Kochia (Kochia scoparia) [8]; Bassia scoparia, post-emergence, 240 h, 125 g ai/ha, Postemergence, visual rating about 10 d after treatment, read-out: Kochia plant response rating (0 to 100 scale)): 70% | pest or weed control at 31 g/ha (Kochia (Kochia scoparia) [8]; Bassia scoparia, post-emergence, 240 h, Postemergence, 31 g ai/ha, 0 is no effect, 100 is complete control, read-out: Kochia plant response rating (0 to 100 scale)): 50% | pest or weed control at 125 g/ha ([9]; Echinochloa crus-galli, post-emergence, 240 h, 125 g ai/ha, Postemergence, visual rating about 10 d after treatment, read-out: Barnyardgrass plant response rating (0 to 100 scale, 0 no effect, 100 complete control)): 90% | pest or weed control at 31 g/ha ([9]; Echinochloa crus-galli, post-emergence, 240 h, Postemergence, 31 g ai/ha, 0 is no effect, 100 is complete control, read-out: Barnyardgrass plant response rating (0 to 100 scale)): 50% | pest or weed control at 125 g/ha ([10]; Alopecurus myosuroides, post-emergence, 240 h, 125 g ai/ha, Postemergence, visual rating about 10 d after treatment, read-out: Blackgrass plant response rating (0 to 100 scale)): 30% | pest or weed control at 31 g/ha ([10]; Alopecurus myosuroides, post-emergence, 240 h, Postemergence, 31 g ai/ha, 0 is no effect, 100 is complete control, read-out: Blackgrass plant response rating (0 to 100 scale)): 0% | plant injury at 125 g/ha (corn (Zea mays); Zea mays, post-emergence, 240 h, 125 g ai/ha, Postemergence, visual rating about 10 d after treatment, read-out: Corn plant response rating (0 to 100 scale)): 30% | plant injury at 31 g/ha (corn (Zea mays); Zea mays, post-emergence, 240 h, Postemergence, 31 g ai/ha, 0 is no effect, 100 is complete control, read-out: Corn plant response rating (0 to 100 scale)): 30% | pest or weed control at 125 g/ha ([11]; Setaria faberi, post-emergence, 240 h, 125 g ai/ha, Postemergence, visual rating about 10 d after treatment, read-out: Foxtail, Giant plant response rating (0 to 100 scale)): 90% | pest or weed control at 31 g/ha ([11]; Setaria faberi, post-emergence, 240 h, Postemergence, 31 g ai/ha, 0 is no effect, 100 is complete control, read-out: Foxtail, Giant plant response rating (0 to 100 scale)): 50% | pest or weed control at 125 g/ha ([12]; Amaranthus retroflexus, post-emergence, 240 h, 125 g ai/ha, Postemergence, visual rating about 10 d after treatment, read-out: Pigweed plant response rating (0 to 100 scale)): 20% | pest or weed control at 31 g/ha ([12]; Amaranthus retroflexus, post-emergence, 240 h, Postemergence, 31 g ai/ha, 0 is no effect, 100 is complete control, read-out: Pigweed plant response rating (0 to 100 scale)): 0% | pest or weed control at 125 g/ha ([13]; Ambrosia artemisiifolia, post-emergence, 240 h, 125 g ai/ha, Postemergence, visual rating about 10 d after treatment, read-out: Ragweed plant response rating (0 to 100 scale)): 30% | pest or weed control at 31 g/ha ([13]; Ambrosia artemisiifolia, post-emergence, 240 h, Postemergence, 31 g ai/ha, 0 is no effect, 100 is complete control, read-out: Ragweed plant response rating (0 to 100 scale)): 0% | pest or weed control at 125 g/ha ([14]; Lolium multiflorum, post-emergence, 240 h, 125 g ai/ha, Postemergence, visual rating about 10 d after treatment, read-out: Ryegrass, Italian plant response rating (0 to 100 scale)): 20% | pest or weed control at 31 g/ha ([14]; Lolium multiflorum, post-emergence, 240 h, Postemergence, 31 g ai/ha, 0 is no effect, 100 is complete control, read-out: Ryegrass, Italian plant response rating (0 to 100 scale)): 0% | plant injury at 125 g/ha ([15]; Triticum aestivum, post-emergence, 240 h, 125 g ai/ha, Postemergence, visual rating about 10 d after treatment, read-out: Wheat plant response rating (0 to 100 scale)): 60% | plant injury at 31 g/ha ([15]; Triticum aestivum, post-emergence, 240 h, Postemergence, 31 g ai/ha, 0 is no effect, 100 is complete control, read-out: Wheat plant response rating (0 to 100 scale)): 20% | pest or weed control at 250 g/ha ([16]; Echinochloa crus-galli, read-out: Barnyardgrass plant response rating): 20% | pest or weed control at 250 g/ha ([17]; Heteranthera limosa, read-out: Ducksalad plant response rating): 100% | pest or weed control at 250 g/ha (rice (Oryra sativa); Oryza sativa, read-out: Rice plant response rating): 0% | pest or weed control at 250 g/ha ([18]; Cyperus difformis, read-out: Sedge, Umbrella plant response rating): 0%

O=C1NCC(c2ccc(Br)cc2)C1C(=O)Nc1cccc(F)c1F (stereo not drawn) [Compound 446]
Plant response rating, Kochia (Kochia (Kochia scoparia) [1]; [19]): 50 | Kochia plant response rating (0 to 100 scale, 0 is no effect, 100 is complete control) (Kochia (Kochia scoparia) [1]; [20]): 50 | Plant response rating, Barnyardgrass [2, 19]: 90 | Barnyardgrass plant response rating (0 to 100 scale, 0 is no effect, 100 is complete control) [2, 20]: 90 | Plant response rating, Foxtail, Giant [3, 19]: 90 | Foxtail, Giant plant response rating (0 to 100 scale, 0 is no effect, 100 is complete control) [3, 20]: 90 | Plant response rating, Pigweed [4, 19]: 40 | Pigweed plant response rating (0 to 100 scale, 0 is no effect, 100 is complete control) [4, 20]: 60 | Plant response rating, Ragweed [5, 19]: 50 | Ragweed plant response rating (0 to 100 scale, 0 is no effect, 100 is complete control) [5, 20]: 50 | Plant response rating, Ryegrass, Italian [6, 19]: 20 | Ryegrass, Italian plant response rating (0 to 100 scale, 0 is no effect, 100 is complete control) [6, 20]: 60 | Galium plant response rating [7, 21]: 50 | Plant response rating, Galium [7, 22]: 50 | Kochia plant response rating (Kochia (Kochia scoparia) [8]; [21]): 60 | Plant response rating, Kochia (Kochia (Kochia scoparia) [8]; [22]): 60 | Barnyardgrass plant response rating [9, 21]: 80 | Plant response rating, Barnyardgrass [9, 22]: 90 | Blackgrass plant response rating [10, 21]: 50 | Plant response rating, Blackgrass [10, 22]: 50 | Corn plant response rating (corn (Zea mays); [21]): 20 | Plant response rating, Corn (corn (Zea mays); [22]): 30 | Foxtail, Giant plant response rating [11, 21]: 90 | Plant response rating, Foxtail, Giant [11, 22]: 90 | Pigweed plant response rating [12, 21]: 50 | Plant response rating, Pigweed [12, 22]: 60 | Ragweed plant response rating [13, 21]: 0 | Plant response rating, Ragweed [13, 22]: 20 | Ryegrass, Italian plant response rating [14, 21]: 20 | Plant response rating, Ryegrass, Italian [14, 22]: 30 | Wheat plant response rating [15, 21]: 0 | Plant response rating, Wheat [15, 22]: 50 | Plant response rating, Barnyardgrass ([16]; 13 to 15 d): 75 | Plant response rating, Ducksalad ([17]; 13 to 15 d): 100 | Plant response rating, Rice (rice (Oryra sativa); 13 to 15 d): 0 | Plant response rating, Sedge, Umbrella ([18]; 13 to 15 d): 0
